How the values were obtained:
cocklebur = experiment: Test B pre/postemergence cocklebur; assay type: in vivo, Xanthium strumarium
In short: (§1)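 Response is a visual 0-to-10 score relative to untreated plants, where 0 means no effect and 10 means complete control, taken twelve to sixteen days after application. Treatments went onto soil at planting and onto foliage of 1- to 4-leaf plants, using a surfactant-containing non-phytotoxic solvent.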

sugar beet = experiment: Test B pre/postemergence sugar beet; assay type: in vivo, Beta vulgaris
In short: as §1

blackgrass = experiment: Test B pre/postemergence blackgrass; assay type: in vivo, Alopecurus myosuroides
In short: as §1

pigweed = experiment: Test B pre/postemergence pigweed; assay type: in vivo, Amaranthus retroflexus
In short: as §1

velvetleaf = experiment: Test B pre/postemergence velvetleaf; assay type: in vivo, Abutilon theophrasti
In short: as §1

corn = experiment: Test B pre/postemergence corn; assay type: in vivo, Zea mays
In short: as §1

morningglory = experiment: Test B pre/postemergence morningglory; assay type: in vivo, Ipomoea hederacea
In short: as §1

bedstraw = experiment: Test B pre/postemergence bedstraw; assay type: in vivo, Galium aparine
In short: as §1

wheat = experiment: Test B pre/postemergence wheat; assay type: in vivo, Triticum aestivum
In short: as §1

purple nutsedge = experiment: Test B pre/postemergence purple nutsedge; assay type: in vivo, Cyperus rotundus
In short: as §1

crabgrass = experiment: Test B pre/postemergence crabgrass; assay type: in vivo, Digitaria sanguinalis
In short: as §1

wild oat = experiment: Test B pre/postemergence wild oat; assay type: in vivo, Avena fatua
In short: as §1

giant foxtail = experiment: Test B pre/postemergence giant foxtail; assay type: in vivo, Setaria faberii
In short: as §1

rape = experiment: Test B pre/postemergence rape; assay type: in vivo, Brassica napus
In short: as §1

surinam grass = experiment: Test B pre/postemergence surinam grass; assay type: in vivo, Brachiaria decumbens
In short: as §1

soybean = experiment: Test B pre/postemergence soybean; assay type: in vivo, Glycine max
In short: as §1

[1] = Preemergence, Rate 62 g/ha, scale of 0 to 10 where 0 is no effect and 10 is complete control
[2] = Preemergence, Rate 125 g/ha, scale of 0 to 10 where 0 is no effect and 10 is complete control
[3] = Preemergence, Rate 250 g/ha, scale 0 to 10 (0 no effect, 10 complete control)
[4] = Preemergence, Rate 500 g/ha, scale of 0 to 10 where 0 is no effect and 10 is complete control
[5] = Postemergence, Rate 62 g/ha, scale 0 to 10, 0 is no effect, 10 is complete control
[6] = Postemergence, Rate 125 g/ha, scale of 0 to 10 where 0 is no effect and 10 is complete control
[7] = Preemergence, Rate 250 g/ha, scale 0 (no effect) to 10 (complete control)
[8] = Rate 250 g/ha, Postemergence, scale 0 to 10, 0 is no effect, 10 is complete control
[9] = Rate 500 g/ha, Postemergence, scale 0 to 10, 0 is no effect, 10 is complete control
[10] = Rate 500 g/ha, Preemergence, scale 0 to 10 (0 no effect, 10 complete control)

## CC(C)N(C(=O)n1oc(=O)n(C(C)C(=S)N(C)C)c1=O)c1ccccc1 (stereo not shown) [Compound 704]
cocklebur; [1]
  Cocklebur plant response rating: 0
cocklebur; [2]
  Plant response rating, Cocklebur: 0
cocklebur; [3]
  Plant response rating, Cocklebur: 0
cocklebur; [4]
  Plant response rating, Cocklebur: 0
Sugar beet; [1]
  Sugarbeets plant response rating: 0
Sugar beet; [2]
  Plant response rating, Sugarbeets: 3
blackgrass; [1]
  Blackgrass plant response rating: 2
blackgrass; [2]
  Plant response rating, Blackgrass: 6
blackgrass; [3]
  Plant response rating, Blackgrass: 10
blackgrass; [4]
  Plant response rating, Blackgrass: 10
pigweed; [1]
  Redroot pigweed plant response rating: 0
pigweed; [2]
  Plant response rating, Redroot pigweed: 5
velvetleaf; [1]
  Velvetleaf plant response rating: 0
velvetleaf; [2]
  Plant response rating, Velvetleaf: 0
corn; [1]
  Corn plant response rating: 0
corn; [2]
  Plant response rating, Corn: 0
corn; [3]
  Plant response rating, Corn: 0
morningglory; [1]
  Morningglory plant response rating: 0
morningglory; [2]
  Plant response rating, Morningglory: 0
bedstraw; [1]
  Bedstraw plant response rating: 0
bedstraw; [2]
  Plant response rating, Bedstraw: 0
bedstraw; [3]
  Plant response rating, Bedstraw: 0
wheat; [1]
  Wheat plant response rating: 0
wheat; [2]
  Plant response rating, Wheat: 0
Purple nutsedge; [1]
  Nutsedge plant response rating: 0
Purple nutsedge; [2]
  Plant response rating, Nutsedge: 0
crabgrass; [1]
  Crabgrass plant response rating: 5
crabgrass; [2]
  Plant response rating, Crabgrass: 8
crabgrass; [3]
  Plant response rating, Crabgrass: 8
Wild oat; [1]
  Wild oats plant response rating: 0
Wild oat; [2]
  Plant response rating, Wild oats: 0
Giant foxtail; [1]
  Giant foxtail plant response rating: 4
Giant foxtail; [2]
  Plant response rating, Giant foxtail: 7
rape; [1]
  Rape plant response rating: 0
rape; [2]
  Plant response rating, Rape: 0
Surinam grass; [1]
  B. signalgrass plant response rating: 2
Surinam grass; [2]
  Plant response rating, B. signalgrass: 5
Surinam grass; [3]
  Plant response rating, B. signalgrass: 8
Surinam grass; [4]
  Plant response rating, B. signalgrass: 9
soybean; [1]
  Soybean plant response rating: 0
soybean; [2]
  Plant response rating, Soybean: 0

## CC(C)N(C(=O)n1oc(=O)n(CC(F)F)c1=O)c1ccc(F)cc1 [Compound 710]
cocklebur; [5]
  Plant response rating, Cocklebur: 0
cocklebur; [6]
  Cocklebur plant response rating: 0
cocklebur; [1]
  Cocklebur plant response rating: 0
cocklebur; [2]
  Plant response rating, Cocklebur: 0
cocklebur; [7]
  Cocklebur plant response rating: 0
cocklebur; [4]
  Plant response rating, Cocklebur: 0
cocklebur; [8]
  Cocklebur plant response rating: 0
cocklebur; [9]
  Cocklebur plant response rating: 0
Sugar beet; [5]
  Plant response rating, Sugarbeets: 0
Sugar beet; [6]
  Sugarbeets plant response rating: 0
Sugar beet; [1]
  Sugarbeets plant response rating: 6
Sugar beet; [2]
  Plant response rating, Sugarbeets: 6
Sugar beet; [7]
  Sugarbeets plant response rating: 8
Sugar beet; [8]
  Sugarbeets plant response rating: 3
Sugar beet; [9]
  Sugarbeets plant response rating: 6
blackgrass; [5]
  Plant response rating, Blackgrass: 5
blackgrass; [6]
  Blackgrass plant response rating: 6
blackgrass; [1]
  Blackgrass plant response rating: 9
blackgrass; [2]
  Plant response rating, Blackgrass: 9
blackgrass; [7]
  Blackgrass plant response rating: 9
blackgrass; [4]
  Plant response rating, Blackgrass: 10
blackgrass; [8]
  Blackgrass plant response rating: 6
blackgrass; [9]
  Blackgrass plant response rating: 6
pigweed; [5]
  Plant response rating, Redroot pigweed: 8
pigweed; [6]
  Redroot pigweed plant response rating: 8
pigweed; [1]
  Redroot pigweed plant response rating: 8
pigweed; [2]
  Plant response rating, Redroot pigweed: 8
pigweed; [7]
  Redroot pigweed plant response rating: 10
pigweed; [8]
  Redroot pigweed plant response rating: 9
pigweed; [9]
  Redroot pigweed plant response rating: 9
velvetleaf; [5]
  Plant response rating, Velvetleaf: 5
velvetleaf; [6]
  Velvetleaf plant response rating: 6
velvetleaf; [1]
  Velvetleaf plant response rating: 5
velvetleaf; [2]
  Plant response rating, Velvetleaf: 6
velvetleaf; [7]
  Velvetleaf plant response rating: 7
velvetleaf; [8]
  Velvetleaf plant response rating: 6
velvetleaf; [9]
  Velvetleaf plant response rating: 6
corn; [5]
  Plant response rating, Corn: 0
corn; [6]
  Corn plant response rating: 0
corn; [1]
  Corn plant response rating: 0
corn; [2]
  Plant response rating, Corn: 0
corn; [7]
  Corn plant response rating: 0
corn; [8]
  Corn plant response rating: 0
corn; [9]
  Corn plant response rating: 2
morningglory; [5]
  Plant response rating, Morningglory: 4
morningglory; [6]
  Morningglory plant response rating: 4
morningglory; [1]
  Morningglory plant response rating: 0
morningglory; [2]
  Plant response rating, Morningglory: 0
morningglory; [7]
  Morningglory plant response rating: 0
morningglory; [8]
  Morningglory plant response rating: 4
morningglory; [9]
  Morningglory plant response rating: 8
bedstraw; [6]
  Bedstraw plant response rating: 1
bedstraw; [1]
  Bedstraw plant response rating: 3
bedstraw; [2]
  Plant response rating, Bedstraw: 3
bedstraw; [7]
  Bedstraw plant response rating: 5
bedstraw; [4]
  Plant response rating, Bedstraw: 7
bedstraw; [8]
  Bedstraw plant response rating: 6
bedstraw; [9]
  Bedstraw plant response rating: 8
wheat; [5]
  Plant response rating, Wheat: 0
wheat; [6]
  Wheat plant response rating: 0
wheat; [1]
  Wheat plant response rating: 5
wheat; [2]
  Plant response rating, Wheat: 6
wheat; [7]
  Wheat plant response rating: 7
wheat; [8]
  Wheat plant response rating: 4
wheat; [9]
  Wheat plant response rating: 6
Purple nutsedge; [5]
  Plant response rating, Nutsedge: 0
Purple nutsedge; [6]
  Nutsedge plant response rating: 0
Purple nutsedge; [2]
  Plant response rating, Nutsedge: 0
Purple nutsedge; [7]
  Nutsedge plant response rating: 0
Purple nutsedge; [8]
  Nutsedge plant response rating: 0
Purple nutsedge; [9]
  Nutsedge plant response rating: 3
crabgrass; [5]
  Plant response rating, Crabgrass: 8
crabgrass; [6]
  Crabgrass plant response rating: 9
crabgrass; [1]
  Crabgrass plant response rating: 10
crabgrass; [2]
  Plant response rating, Crabgrass: 10
crabgrass; [7]
  Crabgrass plant response rating: 10
crabgrass; [8]
  Crabgrass plant response rating: 9
crabgrass; [9]
  Crabgrass plant response rating: 9
Wild oat; [5]
  Plant response rating, Wild oats: 1
Wild oat; [6]
  Wild oats plant response rating: 3
Wild oat; [1]
  Wild oats plant response rating: 8
Wild oat; [2]
  Plant response rating, Wild oats: 9
Wild oat; [7]
  Wild oats plant response rating: 9
Wild oat; [8]
  Wild oats plant response rating: 5
Wild oat; [9]
  Wild oats plant response rating: 6
Giant foxtail; [5]
  Plant response rating, Giant foxtail: 8
Giant foxtail; [6]
  Giant foxtail plant response rating: 8
Giant foxtail; [1]
  Giant foxtail plant response rating: 10
Giant foxtail; [2]
  Plant response rating, Giant foxtail: 10
Giant foxtail; [7]
  Giant foxtail plant response rating: 10
Giant foxtail; [8]
  Giant foxtail plant response rating: 9
Giant foxtail; [9]
  Giant foxtail plant response rating: 9
rape; [5]
  Plant response rating, Rape: 0
rape; [6]
  Rape plant response rating: 0
rape; [1]
  Rape plant response rating: 7
rape; [2]
  Plant response rating, Rape: 8
rape; [7]
  Rape plant response rating: 8
rape; [8]
  Rape plant response rating: 3
rape; [9]
  Rape plant response rating: 5
Surinam grass; [5]
  Plant response rating, B. signalgrass: 5
Surinam grass; [6]
  B. signalgrass plant response rating: 5
Surinam grass; [1]
  B. signalgrass plant response rating: 8
Surinam grass; [2]
  Plant response rating, B. signalgrass: 8
Surinam grass; [7]
  B. signalgrass plant response rating: 8
Surinam grass; [4]
  Plant response rating, B. signalgrass: 9
Surinam grass; [8]
  B. signalgrass plant response rating: 6
Surinam grass; [9]
  B. signalgrass plant response rating: 7
soybean; [5]
  Plant response rating, Soybean: 3
soybean; [6]
  Soybean plant response rating: 4
soybean; [1]
  Soybean plant response rating: 0
soybean; [2]
  Plant response rating, Soybean: 0
soybean; [7]
  Soybean plant response rating: 3
soybean; [8]
  Soybean plant response rating: 4
soybean; [9]
  Soybean plant response rating: 5

## CC(C)N(C(=O)n1oc(=O)n(C(C)C2CCC2)c1=O)c1ccc(F)cc1 (stereo not shown) [Compound 718]
cocklebur; [1]
  Cocklebur plant response rating: 0
cocklebur; [2]
  Plant response rating, Cocklebur: 0
cocklebur; [7]
  Cocklebur plant response rating: 0
cocklebur; [10]
  Cocklebur plant response rating: 0
Sugar beet; [1]
  Sugarbeets plant response rating: 0
Sugar beet; [2]
  Plant response rating, Sugarbeets: 0
Sugar beet; [7]
  Sugarbeets plant response rating: 2
Sugar beet; [10]
  Sugarbeets plant response rating: 2
blackgrass; [1]
  Blackgrass plant response rating: 8
blackgrass; [2]
  Plant response rating, Blackgrass: 9
blackgrass; [7]
  Blackgrass plant response rating: 9
blackgrass; [10]
  Blackgrass plant response rating: 10
pigweed; [1]
  Redroot pigweed plant response rating: 0
pigweed; [2]
  Plant response rating, Redroot pigweed: 4
pigweed; [7]
  Redroot pigweed plant response rating: 6
pigweed; [10]
  Redroot pigweed plant response rating: 8
velvetleaf; [1]
  Velvetleaf plant response rating: 0
velvetleaf; [2]
  Plant response rating, Velvetleaf: 0
velvetleaf; [7]
  Velvetleaf plant response rating: 0
velvetleaf; [10]
  Velvetleaf plant response rating: 0
corn; [1]
  Corn plant response rating: 0
corn; [2]
  Plant response rating, Corn: 0
corn; [7]
  Corn plant response rating: 0
corn; [10]
  Corn plant response rating: 3
morningglory; [1]
  Morningglory plant response rating: 0
morningglory; [2]
  Plant response rating, Morningglory: 0
morningglory; [7]
  Morningglory plant response rating: 0
morningglory; [10]
  Morningglory plant response rating: 0
bedstraw; [1]
  Bedstraw plant response rating: 0
bedstraw; [2]
  Plant response rating, Bedstraw: 0
bedstraw; [7]
  Bedstraw plant response rating: 0
bedstraw; [10]
  Bedstraw plant response rating: 0
wheat; [1]
  Wheat plant response rating: 0
wheat; [2]
  Plant response rating, Wheat: 0
wheat; [7]
  Wheat plant response rating: 0
wheat; [10]
  Wheat plant response rating: 2
Purple nutsedge; [1]
  Nutsedge plant response rating: 0
Purple nutsedge; [7]
  Nutsedge plant response rating: 0
Purple nutsedge; [10]
  Nutsedge plant response rating: 0
crabgrass; [1]
  Crabgrass plant response rating: 9
crabgrass; [2]
  Plant response rating, Crabgrass: 10
crabgrass; [7]
  Crabgrass plant response rating: 10
crabgrass; [10]
  Crabgrass plant response rating: 10
Wild oat; [1]
  Wild oats plant response rating: 2
Wild oat; [2]
  Plant response rating, Wild oats: 2
Wild oat; [10]
  Wild oats plant response rating: 8
Giant foxtail; [1]
  Giant foxtail plant response rating: 10
Giant foxtail; [2]
  Plant response rating, Giant foxtail: 10
Giant foxtail; [7]
  Giant foxtail plant response rating: 10
Giant foxtail; [10]
  Giant foxtail plant response rating: 10
rape; [1]
  Rape plant response rating: 0
rape; [2]
  Plant response rating, Rape: 0
rape; [7]
  Rape plant response rating: 2
rape; [10]
  Rape plant response rating: 3
Surinam grass; [1]
  B. signalgrass plant response rating: 0
Surinam grass; [2]
  Plant response rating, B. signalgrass: 2
Surinam grass; [7]
  B. signalgrass plant response rating: 7
Surinam grass; [10]
  B. signalgrass plant response rating: 9
soybean; [1]
  Soybean plant response rating: 0
soybean; [2]
  Plant response rating, Soybean: 0
soybean; [7]
  Soybean plant response rating: 0
soybean; [10]
  Soybean plant response rating: 0
